Literature values in US20100261663A1, “Compositions Containing Harpagoside and Paeoniflorin and Methods for Treatment of Conditions Associated with Pain, Inflammation, Arthritis and Symptoms Thereof” (Restorative Remedies, priority 2009, published 2010).
Like-named read-outs stand apart in the source and are kept apart here.

What was measured:
[1] = everted sac, at 60 min
[2] = system: patients suffering from osteoarthritis of the knee and hip; settings: 4 months
[3] = system: patients with hip and knee osteoarthritis; settings: after four months; extract 2,610 mg per day, diacerhein 100 mg per day; no significant differences
[4] = for Cmax: human whole blood
[5] = system: human intestinal microflora
Bacillus subtilis = Bacillus subtilis rec assay
[6] = mice plasma, oral peony root extract
[7] = not given; remark: listed apart in the source
Salmonella = Salmonella microsome reversion assay
[8] = system: intestinal bacteria in rat feces
[9] = rats; for Cumulative biliary excretion: within 24 h
[10] = single oral 43.8 mg harpagoside/600 mg extract (study 1)
[11] = single oral 100 mg harpagoside/400 mg extract (study 1)
[12] = single oral 108 mg harpagoside/1200 mg extract (study 3)
[13] = single oral 150 mg harpagoside/600 mg extract (study 2)
[14] = single oral 162 mg harpagoside/1800 mg extract (study 3)
[15] = single oral 200 mg harpagoside/800 mg extract (study 1)
[16] = 5 mg kg^−1 intravenous, within 72 h

Q: Which intestinal permeability [1] does the source give for `CCC1(c2ccccc2)C(=O)NC(=O)NC1=O` [phenobarbital] here?
A: Its intestinal permeability is 63.1%.

Q: With `CC(=O)Oc1cccc2c1C(=O)c1c(OC(C)=O)cc(C(=O)O)cc1C2=O` [diacerhein] as the compound, how does the “diarrhea, patients” value [2] read?
A: The value was 26.7%.

Q: What about the “Spontaneous pain (10 cm visual analogue scale)” value ([2]; Harpadol 6 capsules/day, diacerhein 100 mg/day, no difference between treatments) of the same compound?
A: The value was “significant improvement”.

Q: And the Lequesne functional index ([2]; no statistical difference between treatments)?
A: Its Lequesne functional index is “progressive and significant reduction”.

Q: And the osteoarthritis symptoms [3]?
A: The osteoarthritis symptoms was “considerable improvements”.

Q: What does the source list for `C[C@]1(OC(=O)/C=C/c2ccccc2)C[C@@H](O)[C@]2(O)C=CO[C@@H](O[C@@H]3O[C@H](CO)[C@@H](O)[C@H](O)[C@H]3O)[C@@H]21` [harpagoside]?
A: biological activity at acidic pH of gastric secretions: significantly reduced; harpagoside in whole blood ([4]; after 600 mg Harpagophytum extract in study 3 (54 mg harpagoside), oral): no harpagoside was detected; Cmax [4, 10]: 15.4 ng/mL; Cmax [4, 11]: 16.4 ng/mL; Cmax [4, 12]: 8.2 ng/mL; Cmax [4, 13]: 32.2 ng/mL; Cmax [4, 14]: 27.8 ng/mL; Cmax [4, 15]: 50.1 ng/mL; clearance ([4]; overall, oral): about 15 L/min; tmax [4, 10]: 2 h; AUC(0-t) [4, 11]: 65.9 ng·h/mL; AUC(0-∞) [4, 11]: 82 ng·h/mL; CL [4, 11]: 20.3 L/min; Terminal t1/2 [4, 11]: 3.7 h; tmax [4, 11]: 2.5 h; AUC(0-t) [4, 12]: 17.2 ng·h/mL; tmax [4, 12]: 1.3 h; AUC(0-t) [4, 13]: 157.5 ng·h/mL; AUC(0-∞) [4, 13]: 226 ng·h/mL; CL [4, 13]: 12.2 L/min; Terminal t1/2 [4, 13]: 5.6 h; tmax [4, 13]: 1.3 h; AUC(0-t) [4, 14]: 160.5 ng·h/mL; AUC(0-∞) [4, 14]: 187.9 ng·h/mL; CL [4, 14]: 14.4 L/min; Terminal t1/2 [4, 14]: 4.4 h; tmax [4, 14]: 1.8 h; AUC(0-t) [4, 15]: 225.7 ng·h/mL; AUC(0-∞) [4, 15]: 355.8 ng·h/mL; CL [4, 15]: 9.4 L/min; Terminal t1/2 [4, 15]: 6.4 h; tmax [4, 15]: 2.5 h; transformation product [5]: transformed into the pyridine monoterpene alkaloid aucubinine B; LD50 (mice): greater than 13.5 grams per kg of body weight

Q: With `C[C@@]12C[C@@]3(O)O[C@@H](O1)[C@]1(COC(=O)c4ccccc4)[C@H]3C[C@@]12O[C@@H]1O[C@H](CO)[C@@H](O)[C@H](O)[C@H]1O` [paeoniflorin, 5β-[(Benzoyloxy)methyl]tetrahydro-5-hydroxy-2-Methyl-2,5-methano-1H-3,4-dioxacyclobuta[cd]pentalen-1α(2H)-yl-β-D-glucopyranoside] as the compound, how does the mutagenicity (Bacillus subtilis) read?
A: Its mutagenicity is “nonmutagenic”.

Q: What about the “mean terminal half-life (t(1/2))” value [6] of the same compound?
A: The value was 1.569 h.

Q: What about the “metabolism in the gut wall” value ([7]; AUC after intraperitoneal 0.5 mg kg^−1 versus intraportal or intravenous) of the same compound?
A: The value was “not metabolized in the gut wall”.

Q: And the hepatic extraction ratio ([7]; intraportal versus intravenous, 0.5 and 5 mg kg^−1)?
A: Its hepatic extraction ratio is “negligible”.

Q: And the “mean pulmonary extraction ratio” value ([7]; venous versus arterial AUC after intravenous 0.5 mg kg^−1)?
A: Its value is 0.06.

Q: What about the mutagenicity (Salmonella) of the same compound?
A: The mutagenicity was “nonmutagenic”.

Q: And the metabolites formed [8]?
A: Its metabolites formed is “paeonimetabolin-1 (PM-1) and thio-paeonimetabolin-1 (PT-PM-1)”.

Q: And the LD50 (Rodent-mouse; Intraperitoneal)?
A: Its LD50 is 3530 mg/kg.

Q: What about the “Toxic Effects” value (Rodent-mouse; Intraperitoneal) of the same compound?
A: The value was “Behavioral-somnolence (general depressed activity)”.

Q: And the LD50 (Rodent-mouse; Intravenous)?
A: The LD50 was 9530 mg/kg.

Q: What about the “Toxic Effects” value (Rodent-mouse; Intravenous) of the same compound?
A: The value was “Behavioral-sleep. Behavioral-somnolence (general depressed activity)”.

Q: And the Cumulative biliary excretion ([9]; 0.5 mg kg^−1 intravenous)?
A: The Cumulative biliary excretion was 6.9 % of the dose.

Q: And the Cumulative biliary excretion ([9]; 0.5 mg kg^−1 oral)?
A: The Cumulative biliary excretion was 1.3 % of the dose.

Q: What about the cumulative fecal excretion [9, 16] of the same compound?
A: Its cumulative fecal excretion is 0.22 % of the dose.

Q: What about the cumulative urinary excretion [9, 16] of the same compound?
A: The cumulative urinary excretion was 50.5 % of the dose.

Q: What about the cumulative fecal excretion ([9]; 5 mg kg^−1 oral, within 48 h) of the same compound?
A: The cumulative fecal excretion was 0.08 % of the dose.

Q: And the cumulative urinary excretion ([9]; 5 mg kg^−1 oral, within 48 h)?
A: Its cumulative urinary excretion is 1.0 % of the dose.

Q: And the CLtot ([9]; intravenous 0.5 mg kg^−1)?
A: The CLtot was 26.1 mL/min/kg.

Q: What about the Vdss ([9]; intravenous 0.5 mg kg^−1) of the same compound?
A: Its Vdss is 0.332 L/kg.

Q: And the mean terminal half-life ([9]; intravenous 0.5 mg kg^−1)?
A: The mean terminal half-life was 0.183 h.

Q: And the CLtot ([9]; intravenous 2.0 mg kg^−1)?
A: Its CLtot is 31.2 mL/min/kg.

Q: And the Vdss ([9]; intravenous 2.0 mg kg^−1)?
A: The Vdss was 0.384 L/kg.

Q: And the mean terminal half-life ([9]; intravenous 2.0 mg kg^−1)?
A: The mean terminal half-life was 0.165 h.

Q: And the CLtot ([9]; intravenous 5.0 mg kg^−1)?
A: Its CLtot is 30.3 mL/min/kg.

Q: And the Vdss ([9]; intravenous 5.0 mg kg^−1)?
A: The Vdss was 0.423 L/kg.

Q: What about the mean terminal half-life ([9]; intravenous 5.0 mg kg^−1) of the same compound?
A: Its mean terminal half-life is 0.21 h.
